Measurements from PubChem BioAssay (NCI).
“And” between values parts separate entries of the source, which are not always exact repeats. Equal entries are not always repeated.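 Briefly, cells in 96-well plates were exposed to five compound concentrations for 48 h, and endpoints were estimated by linear interpolation. The concentration for 50% growth inhibition is given as GI50. TGI is the concentration that stops growth completely.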

Assays:
Experiment in all cases: DTP human tumour cell line panel, 48 h
NCI-H226 lung = tested on: NCI-H226 lung
SF-268 CNS = tested on: SF-268 CNS
TK-10 renal = tested on: TK-10 renal
OVCAR-8 ovarian = tested on: OVCAR-8 ovarian
RPMI-8226 leukemia = tested on: RPMI-8226 leukemia
UACC-62 melanoma = tested on: UACC-62 melanoma
SNB-75 CNS = tested on: SNB-75 CNS
SR leukemia = tested on: SR leukemia
HCT-116 colon = tested on: HCT-116 colon
SK-MEL-5 melanoma = tested on: SK-MEL-5 melanoma
SW-620 colon = tested on: SW-620 colon
MDA-N = tested on: MDA-N
SK-MEL-28 melanoma = tested on: SK-MEL-28 melanoma
786-0 renal = tested on: 786-0 renal

SMILES | TGI (NCI-H226 lung) [µM] | TGI (SF-268 CNS) [µM] | TGI (TK-10 renal) [µM] | TGI (OVCAR-8 ovarian) [µM] | TGI (RPMI-8226 leukemia) [µM] | TGI (UACC-62 melanoma) [µM] | TGI (SNB-75 CNS) [µM] | TGI (SR leukemia) [µM] | TGI (HCT-116 colon) [µM] | TGI (SK-MEL-5 melanoma) [µM] | TGI (SW-620 colon) [µM] | TGI (MDA-N) [µM] | TGI (SK-MEL-28 melanoma) [µM] | TGI (786-0 renal) [µM] | GI50 (RPMI-8226 leukemia)
Cc1ccc2c(c1)C(=O)c1nc(C)ccc1C2=O | > 100 | > 100 | > 100 | 97.5 | 74.1 | 67.3 | > 100 | > 100 | 60.6 | 19.7 | > 100 | 39.9 | > 100 | > 100 | –
Cc1ccc(/C=N/n2c(-c3ccc(C)cc3)n[nH]c2=O)cc1 | > 100 | > 100 | > 100 | > 100 | > 100 | > 100 | > 100 | 61.3 | > 100 | > 100 | > 100 | > 100 | > 100 | > 100 | –
Nc1nc(Cl)c(N)c(NCC2(CO)CC2)n1 | > 100 | > 100 | > 100 | > 100 | > 100 | > 100 | > 100 | > 100 | > 100 | > 100 | > 100 | > 100 | > 100 | > 100 | –
C=CCC1CC(n2cc(C)c(=O)[nH]c2=O)OC1CO[Si](C)(C)C(C)(C)C (centres undefined) | 28.4 | 30.9 | 30.1 | 28.5 | 47.5 | 31.7 | 25.4 | 11.5 | 24.6 | 29.9 | 31.9 | 27.4 | 30.4 | 28.8 | –
C=C(C(=O)O)[C@@H]1C[C@@H]2O[C@H]1[C@@H](O)[C@@H](C)CCCC(C)=CCC[C@@]2(C)O | > 100 | > 100 | > 100 | > 100 | > 100 | > 100 | > 100 | > 95 | > 100 | > 100 | > 100 | > 100 | > 100 | > 100 | 25 µM and 55.9 µM
O=C1C(Br)=C(c2ccccc2)O/C1=C/C(=O)c1ccc(Br)cc1 | > 100 | > 100 | > 100 | 81.1 | 62.7 | > 100 | > 100 | > 100 | > 100 | > 100 | 47.3 | > 100 | > 100 | 47 | –
O=C1c2cc(Cl)ccc2NC(=NC2CCCC2)C2CSCN12 (centres undefined) | > 100 | > 100 | > 100 | > 100 | > 100 | > 100 | > 100 | > 100 | > 100 | > 100 | > 100 | > 100 | > 100 | > 100 | –
